Laboratory results reported in PubChem BioAssay (NCI).
Values joined by “and” are separate entries in the source; they are usually repeats but may differ in a detail not shown here. Identical values can stand only once.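 Assay format: 96-well plates, 48-hour exposure. GI50 is the concentration that inhibits growth by half. TGI is the concentration that stops growth completely.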

Columns and labels:
Assay in all cases: growth of human tumour cells (NCI), 48 h
SF-268 CNS = tested on: SF-268 CNS
HCT-116 colon = tested on: HCT-116 colon
SK-MEL-28 melanoma = tested on: SK-MEL-28 melanoma
786-0 renal = tested on: 786-0 renal
M14 melanoma = tested on: M14 melanoma
UACC-62 melanoma = tested on: UACC-62 melanoma
CAKI-1 renal = tested on: CAKI-1 renal
IGROV1 ovarian = tested on: IGROV1 ovarian
COLO 205 colon = tested on: COLO 205 colon
EKVX NSCLC = tested on: EKVX NSCLC

Fc1ccc(Nc2nc(NCCNc3ccnc4cc(Cl)ccc34)nc(N3CCOCC3)n2)cc1
GI50 (SF-268 CNS): 6.85 µM
TGI (SF-268 CNS): 20.5 µM
GI50 (HCT-116 colon): 4.82 µM
TGI (HCT-116 colon): 17 µM
GI50 (SK-MEL-28 melanoma): 1.83 µM
TGI (SK-MEL-28 melanoma): 3.25 µM
GI50 (786-0 renal): 3.35 µM
TGI (786-0 renal): 15.3 µM
GI50 (M14 melanoma): 1.94 µM
TGI (M14 melanoma): 3.66 µM
GI50 (UACC-62 melanoma): 2.65 µM
TGI (UACC-62 melanoma): 7.35 µM
GI50 (CAKI-1 renal): 5.59 µM
TGI (CAKI-1 renal): 19.5 µM
GI50 (IGROV1 ovarian): 6.3 µM
TGI (IGROV1 ovarian): 21.4 µM
GI50 (COLO 205 colon): 1.71 µM
TGI (COLO 205 colon): 3.26 µM

O=C1c2ccccc2C(=O)C1C(c1ccc([N+](=O)[O-])cc1)C1C(=O)c2ccccc2C1=O
TGI (SF-268 CNS): 73.6 µM
TGI (HCT-116 colon): 49.3 µM
TGI (SK-MEL-28 melanoma): 93.6 µM
TGI (786-0 renal): > 100 µM
TGI (M14 melanoma): > 100 µM
TGI (UACC-62 melanoma): > 100 µM
TGI (CAKI-1 renal): 95 µM
TGI (EKVX NSCLC): > 100 µM
TGI (COLO 205 colon): > 100 µM

O=[N+]([O-])c1nccn1CC1OC(n2ccnc2[N+](=O)[O-])C(O)C(O)C1O (stereo not given)
TGI (HCT-116 colon): > 100 µM
TGI (SK-MEL-28 melanoma): > 100 µM
TGI (786-0 renal): > 100 µM
TGI (M14 melanoma): > 100 µM
TGI (UACC-62 melanoma): > 100 µM
TGI (EKVX NSCLC): > 100 µM
TGI (COLO 205 colon): > 100 µM

Cc1cccc(C)c1NC(=O)CCCC(=O)C1CCC/C1=N\NC(=O)C(=O)NN (stereo not given)
TGI (SF-268 CNS): > 100 µM
TGI (HCT-116 colon): > 100 µM
TGI (SK-MEL-28 melanoma): > 100 µM
TGI (786-0 renal): > 100 µM
TGI (M14 melanoma): > 100 µM
TGI (CAKI-1 renal): > 100 µM
TGI (EKVX NSCLC): > 100 µM
TGI (COLO 205 colon): > 100 µM

COc1ccc(-c2ccc(/C=N/n3c(COc4ccc(Cl)cc4)n[nH]c3=S)o2)c([N+](=O)[O-])c1
GI50 (SF-268 CNS): 16.6 µM
TGI (SF-268 CNS): 42.6 µM
GI50 (HCT-116 colon): 16.8 µM
TGI (HCT-116 colon): 40.7 µM
GI50 (SK-MEL-28 melanoma): 17.3 µM
TGI (SK-MEL-28 melanoma): > 100 µM
GI50 (786-0 renal): 18.4 µM
TGI (786-0 renal): 44.7 µM
GI50 (M14 melanoma): 32.7 µM
TGI (M14 melanoma): > 100 µM
GI50 (UACC-62 melanoma): 17.8 µM
TGI (UACC-62 melanoma): 51.7 µM
GI50 (CAKI-1 renal): 3.96 µM
TGI (CAKI-1 renal): 22.2 µM
GI50 (EKVX NSCLC): 12.4 µM
TGI (EKVX NSCLC): 54.1 µM
GI50 (COLO 205 colon): 20.1 µM
TGI (COLO 205 colon): 45.2 µM

N#Cc1ccccc1NC(=O)c1ccccc1
TGI (SF-268 CNS): > 100 µM
TGI (HCT-116 colon): > 100 µM
TGI (SK-MEL-28 melanoma): > 100 µM
TGI (786-0 renal): > 100 µM
TGI (UACC-62 melanoma): > 100 µM
TGI (CAKI-1 renal): > 100 µM
TGI (EKVX NSCLC): > 100 µM
TGI (IGROV1 ovarian): > 100 µM
TGI (COLO 205 colon): > 100 µM

CC(=O)c1cccc(NCn2nnc3ccccc32)c1
TGI (SF-268 CNS): > 100 µM
TGI (HCT-116 colon): > 100 µM
TGI (SK-MEL-28 melanoma): > 100 µM
TGI (786-0 renal): > 100 µM
TGI (M14 melanoma): > 100 µM
TGI (UACC-62 melanoma): > 100 µM
TGI (EKVX NSCLC): > 100 µM
TGI (IGROV1 ovarian): > 100 µM
TGI (COLO 205 colon): > 100 µM

CCc1c2c(nc3cccc(N)c13)-c1cc3c(c(=O)n1C2)COC(=O)[C@]3(O)CC
GI50 (SF-268 CNS): 0.00233 µM
TGI (SF-268 CNS): 78 µM
GI50 (SK-MEL-28 melanoma): 0.113 µM and 0.034 µM
TGI (SK-MEL-28 melanoma): > 100 µM
GI50 (786-0 renal): < 0.001 µM
TGI (786-0 renal): 1.62 µM
GI50 (M14 melanoma): 0.00202 µM
TGI (M14 melanoma): 2.97 µM
GI50 (UACC-62 melanoma): < 0.001 µM
TGI (CAKI-1 renal): 0.0349 µM
GI50 (EKVX NSCLC): 0.187 µM
TGI (EKVX NSCLC): > 100 µM
GI50 (IGROV1 ovarian): 0.137 µM and 0.0298 µM
TGI (IGROV1 ovarian): 20.8 µM
GI50 (COLO 205 colon): 0.328 µM

COc1ccc2cc3n(c2c1)CCc1cc(OC)c(OC)cc1-3
TGI (SF-268 CNS): > 100 µM
TGI (SK-MEL-28 melanoma): > 100 µM
TGI (786-0 renal): > 100 µM
TGI (UACC-62 melanoma): > 100 µM
TGI (CAKI-1 renal): > 100 µM
TGI (EKVX NSCLC): > 100 µM
TGI (IGROV1 ovarian): > 100 µM
TGI (COLO 205 colon): > 100 µM

CS(=O)(=O)Nc1cc(-c2ccc3ncnc(Nc4ccc5c(cnn5Cc5ccc(F)cc5)c4)c3c2)cnc1Cl
GI50 (SF-268 CNS): 0.819 µM
TGI (SF-268 CNS): 4.51 µM
GI50 (HCT-116 colon): 2.92 µM
TGI (HCT-116 colon): 21.7 µM
GI50 (SK-MEL-28 melanoma): 0.803 µM
TGI (SK-MEL-28 melanoma): 7.17 µM
GI50 (786-0 renal): 2.22 µM
TGI (786-0 renal): 19.9 µM
GI50 (M14 melanoma): 2.33 µM
TGI (M14 melanoma): 17 µM
GI50 (UACC-62 melanoma): 0.607 µM
TGI (UACC-62 melanoma): 2.98 µM
GI50 (EKVX NSCLC): 2.21 µM
TGI (EKVX NSCLC): 18.4 µM
GI50 (IGROV1 ovarian): 0.314 µM
TGI (IGROV1 ovarian): 1.71 µM
GI50 (COLO 205 colon): 1.96 µM
TGI (COLO 205 colon): 6.02 µM

[O-]c1on[n+]2c1c(Nc1ccc(Cl)cc1)nc1ccccc12
TGI (SF-268 CNS): > 100 µM
TGI (HCT-116 colon): > 100 µM
TGI (SK-MEL-28 melanoma): > 100 µM
TGI (786-0 renal): > 100 µM
TGI (M14 melanoma): > 100 µM
TGI (UACC-62 melanoma): > 100 µM
TGI (EKVX NSCLC): > 100 µM
TGI (IGROV1 ovarian): > 100 µM
TGI (COLO 205 colon): > 100 µM

O=C1CCC2(c3ccccc3)Nc3cc(Cl)ccc3N12 (stereo not given)
TGI (SF-268 CNS): > 100 µM
TGI (SK-MEL-28 melanoma): > 100 µM
TGI (786-0 renal): > 100 µM
TGI (M14 melanoma): > 100 µM
TGI (UACC-62 melanoma): 56.4 µM
TGI (CAKI-1 renal): 87.1 µM
TGI (EKVX NSCLC): > 100 µM
TGI (IGROV1 ovarian): > 100 µM
TGI (COLO 205 colon): 31.6 µM

CC[CH2][Pb]([CH2]CC)([CH2]CC)[NH]S(=O)(=O)c1ccc(C)cc1
GI50 (SF-268 CNS): 0.035 µM
TGI (SF-268 CNS): 0.117 µM
GI50 (HCT-116 colon): 0.0452 µM
TGI (HCT-116 colon): 0.179 µM
GI50 (SK-MEL-28 melanoma): 0.0764 µM
TGI (SK-MEL-28 melanoma): 0.241 µM
GI50 (786-0 renal): 0.0574 µM
TGI (786-0 renal): 0.134 µM
GI50 (M14 melanoma): 0.0616 µM
TGI (M14 melanoma): 0.219 µM
GI50 (UACC-62 melanoma): 0.0272 µM
TGI (UACC-62 melanoma): 0.0995 µM
GI50 (EKVX NSCLC): 0.0739 µM
TGI (EKVX NSCLC): 0.317 µM
GI50 (IGROV1 ovarian): 0.0723 µM
TGI (IGROV1 ovarian): 0.19 µM
GI50 (COLO 205 colon): 0.0236 µM
TGI (COLO 205 colon): 0.0528 µM

FC(F)(F)c1ccc2nc(Nc3ccc(Cl)c(Cl)c3)c(-c3ccccc3)nc2c1
TGI (SF-268 CNS): > 100 µM
TGI (HCT-116 colon): > 100 µM
TGI (SK-MEL-28 melanoma): > 100 µM
TGI (786-0 renal): > 100 µM
TGI (EKVX NSCLC): > 100 µM
TGI (COLO 205 colon): > 100 µM

CCCCC[C@H]1C/C=C2/C(=O)C(Cl)=C[C@@H]2C/C=C\CCCC(=O)O[C@@H](CCCCC)C/C=C2/C(=O)C(Cl)=C[C@@H]2C/C=C\CCCC(=O)O1
GI50 (SF-268 CNS): 0.479 µM
TGI (SF-268 CNS): 1.68 µM
GI50 (HCT-116 colon): 0.186 µM
TGI (HCT-116 colon): 0.523 µM
GI50 (SK-MEL-28 melanoma): 0.407 µM
TGI (SK-MEL-28 melanoma): 1.01 µM
GI50 (786-0 renal): 0.28 µM
TGI (786-0 renal): 0.622 µM
GI50 (M14 melanoma): 0.39 µM
TGI (M14 melanoma): 1.07 µM
GI50 (UACC-62 melanoma): 0.297 µM
TGI (UACC-62 melanoma): 0.62 µM
GI50 (EKVX NSCLC): 0.543 µM
TGI (EKVX NSCLC): 1.76 µM
GI50 (IGROV1 ovarian): 0.342 µM
TGI (IGROV1 ovarian): 0.958 µM
GI50 (COLO 205 colon): 0.316 µM
TGI (COLO 205 colon): 0.687 µM

COc1cnc2c(c1)C(=O)c1c-2n(CCCN2CCCC2)c(=O)c2cc(Cl)ccc12
GI50 (SF-268 CNS): 0.17 µM
TGI (SF-268 CNS): 9.38 µM
GI50 (SK-MEL-28 melanoma): 8.34 µM
TGI (SK-MEL-28 melanoma): 16.8 µM
GI50 (786-0 renal): 1.47 µM
TGI (786-0 renal): 9.66 µM
GI50 (M14 melanoma): 0.872 µM
TGI (M14 melanoma): 11.8 µM
GI50 (CAKI-1 renal): 0.034 µM
TGI (CAKI-1 renal): 8.18 µM
GI50 (EKVX NSCLC): 2.18 µM
TGI (EKVX NSCLC): 11.3 µM
GI50 (IGROV1 ovarian): 2.47 µM
TGI (IGROV1 ovarian): 12.5 µM
GI50 (COLO 205 colon): 0.161 µM
TGI (COLO 205 colon): 8.22 µM

O=c1cccccc1NCCCCCCCCCNc1cccccc1=O
TGI (SF-268 CNS): 45.7 µM
TGI (HCT-116 colon): 17.4 µM
TGI (786-0 renal): 88.9 µM
TGI (M14 melanoma): 25.7 µM
TGI (UACC-62 melanoma): 28.7 µM
TGI (CAKI-1 renal): > 100 µM
TGI (EKVX NSCLC): 32.7 µM
TGI (IGROV1 ovarian): > 100 µM
TGI (COLO 205 colon): 26.2 µM

Nc1nc(Nc2cccc(F)c2)nc2ccccc12
GI50 (SF-268 CNS): 28.5 µM
TGI (SF-268 CNS): > 100 µM
GI50 (HCT-116 colon): 18.1 µM
TGI (HCT-116 colon): 46.4 µM
GI50 (SK-MEL-28 melanoma): 15 µM
TGI (SK-MEL-28 melanoma): 29 µM
GI50 (786-0 renal): 17.4 µM
TGI (786-0 renal): 33.6 µM
GI50 (UACC-62 melanoma): 17.8 µM
TGI (UACC-62 melanoma): 38.3 µM
GI50 (CAKI-1 renal): 16 µM
TGI (CAKI-1 renal): 44.9 µM
GI50 (IGROV1 ovarian): 38.7 µM
TGI (IGROV1 ovarian): > 100 µM
GI50 (COLO 205 colon): 15.9 µM
TGI (COLO 205 colon): 34 µM
